Data as given in patent US20180148429A1 (SELVITA S.A., priority 2015, published 2018).

target: T1, Human recombinant His-tagged PFKFB3 (Homo sapiens, UniProt Q16875); assay: PFKFB3 IC50 determination assay (in vitro kinase assay, modified ADP-Glo system); assay type: biochemical; conditions: not given
T1 construct: His; made in house
Experimental: PFKFB3 IC50 Determination Assay
In vitro kinase assay used to determine IC50 values for tested inhibitors is based on a modified ADP-Glo™ system (Promega) and consists of two parts:
1. Kinase reaction—performed in optimized conditions. At this step PFKFB3 phosphorylates its substrate fructose-6-phosphate using ATP as a source of phosphate to produce fructose-2,6-bisphosphate and ADP. Reaction is performed at Km values for ATP and substrate using optimized buffer composition and time of the reaction. Human recombinant His-tagged PFKFB3 (PFKFB3 BATCH II SEC) with confirmed activity is produced and purified in-house.
2. Detection of ADP as a product of the reaction using ADP-Glo™ system. This part is conducted by using the commercially available kit ADP-Glo™ Kinase Assay (Promega, cat. No# V9103) according to manufacturer's instruction, modified by 5× dilutions of assay reagents (both ADP-Glo™ Reagent and Kinase Detection Solution).
Test compounds are dissolved in DMSO and then transferred to the V-bottom 96-well plate.
15 μL per well of Mix 1 is transferred to assay wells of 96-well white plate. […] Total reaction volume is 30 μL per well. Samples are tested in duplicates. Final concentration of DMSO in the reaction is 6.7%. Conditions needed for performing PFKFB3 (PFKFB3 BATCH II SEC) in vitro kinase assay are given below:
This protocol is based on Technical Bulletin, ADP-Glo™ Kinase Assay (Promega) and is adapted to 96-well plate containing 30 μL reaction mixture:
The plate is incubated for 90 minutes on a shaker at rt. […] Plate is incubated for 40 minutes on a shaker at rt, protected from light. Luminescence is measured in the plate reader Synergy 2 (BioTek).
Luminescent readouts for compounds tested in 10 concentrations (routinely from 100 μM to […], […] serial dilutions) in duplicates, as well as for positive control, are first normalized to no-substrate negative control by its subtraction. In the next step, % of normalized positive control is calculated for each data point and plotted against test compound concentration:
% of control—percent of positive control normalized to no-substrate negative control Lumcpd—luminescence of test compound Lumneg—luminescence of no-substrate negative control Lumpos—luminescence of positive control
IC50 parameter is determined by the GraphPad Prism 5.0 software
[log(inhibitor) vs. response−Variable slope (four parameters)].

T1 sequence (Q16875 whole entry): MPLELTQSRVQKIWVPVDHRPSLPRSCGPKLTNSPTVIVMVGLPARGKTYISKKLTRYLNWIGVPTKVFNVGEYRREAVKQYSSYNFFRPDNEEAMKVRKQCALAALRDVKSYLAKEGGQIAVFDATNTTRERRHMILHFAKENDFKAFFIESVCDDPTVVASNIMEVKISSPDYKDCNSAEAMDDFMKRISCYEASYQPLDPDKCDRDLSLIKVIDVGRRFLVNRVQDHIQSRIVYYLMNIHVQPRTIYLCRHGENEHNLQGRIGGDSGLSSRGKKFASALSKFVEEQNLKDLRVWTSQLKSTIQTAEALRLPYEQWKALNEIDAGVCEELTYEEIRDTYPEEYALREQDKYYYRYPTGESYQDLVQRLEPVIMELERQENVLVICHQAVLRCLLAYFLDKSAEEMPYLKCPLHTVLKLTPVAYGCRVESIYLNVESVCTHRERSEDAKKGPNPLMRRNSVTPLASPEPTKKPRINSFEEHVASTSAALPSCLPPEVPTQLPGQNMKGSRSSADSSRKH

Compared with `Cn1ccc2ccc(-c3cc(NC(c4ccncc4)C4CCNCC4)cc4nccnc34)cc21` (stereo not shown) [Example 228], `COc1ccc([C@@H](Nc2cc(-c3ccc4ccn(C)c4c3)c3nccnc3c2)c2cccnc2)cn1` [Example 271, N-[(S)-(6-methoxypyridin-3-yl)(pyridin-3-yl)methyl]-8-(1-methyl-1H-indol-6-yl)quinoxalin-6-amine] is lower in IC50: 10 to 100 µM for the first, 0.001 to 1 µM for the second.

same assay, conditions: ADP-Glo; ATP 20 μM (Km), fructose-6-phosphate 2 μM (Km), 25 nM PFKFB3, 2 h, rt; read-out: PFKFB3 IC50

Compared with `CNc1ccc(C(Nc2cc(-c3ccc4ccn(C)c4c3)c3nccnc3c2)c2cccnc2)cn1` (stereo not shown) [Example 305, 8-(1-methyl-1H-indol-6-yl)-N-{[6-(methylamino)pyridin-3-yl](pyridin-3-yl)methyl}quinoxalin-6-amine], `Cn1ccc2ccc(-c3cc(NC(c4cccnc4)c4ccnc(N)c4)cc4nccnc34)cc21` (stereo not shown) [Example 288, N-[(2-aminopyridin-4-yl)(pyridin-3-yl)methyl]-8-(1-methyl-1H-indol-6-yl)quinoxalin-6-amine] is lower in IC50: 1 to 10 µM for the first, 0.001 to 1 µM for the second. The second is the more potent here.

First: Cn1ccc2ccc(-c3cc(NCc4c[nH]cn4)cc4nccnc34)cc21 [Example 284, N-(1H-imidazol-4-ylmethyl)-8-(1-methyl-1H-indol-6-yl)quinoxalin-6-amine]
Second: Cn1nccc1CNc1cc(-c2ccc3ccn(C)c3c2)c2nccnc2c1 [Example 301, 8-(1-methyl-1H-indol-6-yl)-N-[(1-methyl-1H-pyrazol-5-yl)methyl]quinoxalin-6-amine]
The IC50 of the first is higher: 10 to 100 µM for the first, 1 to 10 µM for the second.

`Cn1ccc2ccc(-c3cc(NC4CCN(C(=O)C5CC5)C4)cc4nccnc34)cc21` (stereo not shown) [Example 162] and `CC(=O)N1CC[C@H](Nc2cc(-c3ccc4ccn(C)c4c3)c3nccnc3c2)C1` [Example 153] fall in the same range of IC50: 1 to 10 µM for the first, 1 to 10 µM for the second.

Compared with `COc1ccc(C(Nc2cc(-c3ccc4ccn(C)c4c3)c3nccnc3c2)c2cncn2C)cn1` (stereo not shown) [Example 314, N-[(6-methoxypyridin-3-yl)(1-methyl-1H-imidazol-5-yl)methyl]-8-(1-methyl-1H-indol-6-yl)quinoxalin-6-amine], `COc1ccc(C(Nc2cc(-c3ccc4ccn(C)c4c3)c3nccnc3c2)c2ccc(OC)nc2)cn1` [Example 309, N-[bis(6-methoxypyridin-3-yl)methyl]-8-(1-methyl-1H-indol-6-yl)quinoxalin-6-amine] is higher in IC50: 0.001 to 1 µM for the first, 1 to 10 µM for the second.

`CC(=O)N[C@H]1CC[C@H]([C@H](Nc2cc(-c3ccc4ccn(C)c4c3)c3nccnc3c2)c2cccnc2)CC1` [Example 328, N-[(1S,4r)-4-[(S)-{[8-(1-methyl-1H-indol-6-yl)quinoxalin-6-yl]amino}(pyridin-3-yl)methyl]cyclohexyl]acetamide] and `CCC(=O)N1CCC(C(Nc2cc(-c3ccc4ccn(C)c4c3)c3nccnc3c2)c2cccnc2)CC1` (stereo not shown) [Example 238] fall in the same range of IC50: 0.001 to 1 µM for the first, 0.001 to 1 µM for the second.

`CC(=O)N1CCC(C(Nc2cc(-c3ccc4scc(C)c4c3)c3nccnc3c2)c2cccnc2)CC1` (stereo not shown) [Example 270, 1-[4-({[8-(3-methyl-1-benzothiophen-5-yl)quinoxalin-6-yl]amino}(pyridin-3-yl)methyl)piperidin-1-yl]ethan-1-one] and `Cc1csc2ccc(-c3cc(NC(c4cccnc4)C4CCNCC4)cc4nccnc34)cc12` (stereo not shown) [Example 268, 8-(3-methyl-1-benzothiophen-5-yl)-N-[piperidin-4-yl(pyridin-3-yl)methyl]quinoxalin-6-amine] fall in the same range of IC50: 0.001 to 1 µM for the first, 0.001 to 1 µM for the second.

`Cn1ccc2ccc(-c3cc(N(Cc4cccnc4)c4cc(S(C)(=O)=O)ccn4)cc4nccnc34)cc21` [compound 219, N-(4-methanesulfonylpyridin-2-yl)-8-(1-methyl-1H-indol-6-yl)-N-[(pyridin-3-yl)methyl]quinoxalin-6-amine] and `Cn1ccc2ccc(-c3cc(NC(c4cccnc4)c4cc[nH]c(=O)c4)cc4nccnc34)cc21` (stereo not shown) [Example 267, 4-({[8-(1-methyl-1H-indol-6-yl)quinoxalin-6-yl]amino}(pyridin-3-yl)methyl)-1,2-dihydropyridin-2-one] fall in the same range of IC50: 0.001 to 1 µM for the first, 0.001 to 1 µM for the second.

First: COc1ccc(CNc2cc(-c3ccc4ccn(C)c4c3)c3nccnc3c2)cn1 [Example 321, N-[(6-methoxypyridin-3-yl)methyl]-8-(1-methyl-1H-indol-6-yl)quinoxalin-6-amine]
Second: Cn1ccc2ccc(-c3cc(NCc4ccns4)cc4nccnc34)cc21 [Example 281, 8-(1-methyl-1H-indol-6-yl)-N-[(1,2-thiazol-5-yl)methyl]quinoxalin-6-amine]
The IC50 of the first is higher: 1 to 10 µM for the first, 0.001 to 1 µM for the second.

`Cc1nnc(CNc2cc(-c3ccc4ccn(C)c4c3)c3nccnc3c2)o1` [Example 282, N-[(5-methyl-1,3,4-oxadiazol-2-yl)methyl]-8-(1-methyl-1H-indol-6-yl)quinoxalin-6-amine] and `Cn1cnnc1CNc1cc(-c2ccc3ccn(C)c3c2)c2nccnc2c1` [Example 279, 8-(1-methyl-1H-indol-6-yl)-N-[(4-methyl-4H-1,2,4-triazol-3-yl)methyl]quinoxalin-6-amine] fall in the same range of IC50: 1 to 10 µM for the first, 1 to 10 µM for the second.

`CC(N)C(=O)N1CCC(C(Nc2cc(-c3ccc4ccn(C)c4c3)c3nccnc3c2)c2cccnc2)CC1` (stereo not shown) [Example 274, 2-amino-1-[4-({[8-(1-methyl-1H-indol-6-yl)quinoxalin-6-yl]amino}(pyridin-3-yl)methyl)piperidin-1-yl]propan-1-one] and `Cn1ccc2ccc(-c3cc(N[C@H]4CCN(C(=O)c5ccccn5)C4)cc4nccnc34)cc21` [Example 160, 8-(1-methyl-1H-indol-6-yl)-N-[(3S)-1-(pyridine-2-carbonyl)pyrrolidin-3-yl]quinoxalin-6-amine] fall in the same range of IC50: 1 to 10 µM for the first, 1 to 10 µM for the second.

Compared with `CC(Nc1cc(-c2ccc3ccn(C)c3c2)c2nccnc2c1)c1cnccc1N1CCN(C)CC1` (stereo not shown) [compound 242, 8-(1-methyl-1H-indol-6-yl)-N-{1-[4-(4-methylpiperazin-1-yl)pyridin-3-yl]ethyl}quinoxalin-6-amine], `CC(C)C(=O)N1CCC(Nc2cc(-c3ccc4ccn(C)c4c3)c3nccnc3c2)C1` (stereo not shown) [Example 166] is higher in IC50: 0.001 to 1 µM for the first, 1 to 10 µM for the second. The first is the more potent here.

For `COc1ccc([C@@H](Nc2cc(-c3ccc4scc(C)c4c3)c3nccnc3c2)c2cnnn2C)cn1` [Example 323, N-[(R)-(6-methoxypyridin-3-yl)(1-methyl-1H-1,2,3-triazol-5-yl)methyl]-8-(3-methyl-1-benzothiophen-5-yl)quinoxalin-6-amine], the IC50 was 0.001 to 1 µM.
